Measured values from publication PMC8637440, “Structural Modifications Yield Novel Insights Into the Intriguing Pharmacodynamic Potential of Anti-inflammatory Nitro-Fatty Acids” (Frontiers in Pharmacology, 2021).
Values joined by “and” are separate entries in the source; they are usually repeats but may differ in a detail not shown here. Identical values can stand only once.

Columns and labels:
[1] = system: HT-29 cells; assay: WST-1 cell viability assay, HT-29; type: cell-based, human; details: n.i. = no inhibition observed; for IC50: Homo sapiens, HT-29, 48 h
Protocol: (§1) Cell viability was analyzed with the WST-1 assay based on the cleavage of the stable tetrazolium salt WST-1 by the mitochondrial reductase system. Cells were seeded in the appropriate densities in a clear 96-well plate and settled overnight at 37°C in 5% CO2. The next day, the cells were treated with NFA or the substances of interest (≤0.1% dimethyl sulfoxide [DMSO]) and incubated for 24 or 48 h at 37°C in 5% CO2. Cell viability was analyzed by adding 10 µl WST-1 solution (Roche, Basel, Switzerland) and subsequently incubating the cells at 37°C for another 30–40 min. Absorbance was measured at 450 nm with a control wavelength at 620 nm using a plate reader.
(§2) Besides targeting the NF-κB pathway, the anti-tumorigenic effects of NFA can be observed by a reduction of colorectal cancer cell viability. […] Again, the cytotoxic effects of NFA were determined in HCT-116 and HT-29 colorectal cancer cells in the present study. […] HCT-116 cells were treated with increasing concentrations of NFA differing in chain length and Michael acceptor position for 24 h, and cell viability was determined using the WST-1 assay. Due to their prolonged cell division rate and their lack of sensitivity towards NFA ([Kühn et al., 2018]), HT-29 cells were treated for 48 h to gain improved NFA activity.

[2] = system: HCT-116 cells; assay: WST-1 cell viability assay, HCT-116; type: cell-based, human; details: for IC50: Homo sapiens, HCT-116; for cytotoxic potency higher compared to 9NOA: HCT-116 and HT-29 cells
Protocol: as §1, §2

[3] = molecular target: T1, 5-LO (Homo sapiens, UniProt P09917); assay: 5-LO product formation (LTB4, 5-HETE) in intact PMNL, A23187 + 20 µM AA; type: cell-based; details: 15 min preincubation, A23187 2.5 µM + 20 µM AA, n.i. = no inhibition observed; for PMNL (20 µM AA) 5-HETE IC50 / PMNL (20 µM AA) LTB4 IC50: intact PMNL
T1 construct: endogenous in cells; host or cells: human PMNL from buffy coats
T1 sequence (P09917 1-674): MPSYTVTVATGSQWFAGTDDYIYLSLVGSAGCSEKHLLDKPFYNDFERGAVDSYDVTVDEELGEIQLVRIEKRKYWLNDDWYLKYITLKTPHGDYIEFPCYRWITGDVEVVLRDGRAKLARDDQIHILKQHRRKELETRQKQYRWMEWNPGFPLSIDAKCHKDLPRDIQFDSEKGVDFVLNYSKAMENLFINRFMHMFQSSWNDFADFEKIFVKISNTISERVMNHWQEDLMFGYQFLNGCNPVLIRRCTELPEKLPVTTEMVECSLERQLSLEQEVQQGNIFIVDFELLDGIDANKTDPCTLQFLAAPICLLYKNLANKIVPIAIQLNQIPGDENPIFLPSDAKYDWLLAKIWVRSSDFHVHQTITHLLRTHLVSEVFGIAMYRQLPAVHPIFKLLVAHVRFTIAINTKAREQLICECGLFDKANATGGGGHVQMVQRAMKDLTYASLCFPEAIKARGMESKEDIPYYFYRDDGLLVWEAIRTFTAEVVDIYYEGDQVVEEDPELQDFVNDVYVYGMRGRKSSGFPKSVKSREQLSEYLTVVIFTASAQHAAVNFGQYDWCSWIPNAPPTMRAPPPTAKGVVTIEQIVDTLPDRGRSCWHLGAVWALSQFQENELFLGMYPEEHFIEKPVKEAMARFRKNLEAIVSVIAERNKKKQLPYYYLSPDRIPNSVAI
Protocol: Buffy coats from different donors of different blood types were commercially obtained from DRK Blutspendedienst Baden-Württemberg Institute Frankfurt. Donors have given their written consent. […] Following separation, the supernatant was transferred very gently to new 50-ml tubes containing lymphocyte separation medium (LSM) and centrifuged for 10 min at 800 ×g at RT with the centrifuge brake turned off. Afterwards, the supernatant was decanted carefully to discard the platelets and monocytes. The PMNL were washed with 1× PBS before the residual erythrocytes were lysed in two cycles: the cell pellet was resuspended with 10 ml H2O and vortexed for 45 s, and lysis was stopped with 40 ml 1 × PBS. After 10-min centrifugation at 200 ×g at RT, the cycle was repeated once. The supernatant was aspirated, the cell pellet resuspended in 5 ml PBS/glucose and initially separated PMNL preparations with different blood types were finally pooled to gain a sufficient number of cells. […] The enzyme was diluted in PBS/EDTA/ATP, transferred into 5-ml glass tubes, and stored on ice. […] The reaction was stopped by placing the glass tubes on ice. The supernatants were transferred to 1.5 ml reaction tubes and stored at −80°C before LC-MS (liquid chromatography and mass spectrometry) analysis of LTB4 and HETEs as described in 2.6 at the Institute of Pharmacology, Goethe University, University Hospital, Germany. The lipid mediators LTB4, hydroxyeicosatetraenoic acids, 5(S)-HETE, 12(S)-HETE, 15(S)-HETE and 20-HETE were analyzed using liquid chromatography tandem-mass spectroscopy (LC-MS/MS). The LC-MS/MS system consisted of a 5500 QTrap mass spectrometer (Sciex, Darmstadt, Germany), operating in negative ESI mode, an Agilent 1200 HPLC system (Agilent, Waldbronn, Germany) and an HTC Pal autosampler (Chromtech, Idstein, Germany). Sample extraction of LTB4 and HETEs were performed using liquid-liquid extraction: 200 µl of the sample were gently mixed with 20 µl of methanol and 20 µl of internal standard solution and extracted twice with 600 µl ethyl acetate. […] Working solutions of all analytes were prepared in methanol containing 0.1% BHT. The calibration standards were prepared by further dilution of the working standards. […] The residues were reconstituted in 50 µl of methanol:water:BHT (50:50:10^−4, v/v/v) prior to injection into the LC-MS/MS system. Chromatographic separation was achieved using a Gemini NX C18 column (150 mm × 2 mm ID, 5 µm, Phenomenex, Aschaffenburg, Germany) with a precolumn of the same material. A linear gradient was employed at a flow rate of 0.5 ml/min and a total run time of 17.5 min. Mobile phases were A water:ammonia (100:0.05, v/v) and B acetonitrile:ammonia (100:0.05, v/v). […] All data were acquired using Analyst software v1.6.2 and quantitation was performed by MultiQuant software v3.0 (both Sciex, Darmstadt, Germany) using the internal standard method (isotope-dilution mass spectrometry). Calibration curves were calculated by linear regression with 1/x.

[4] = WST-1 cell viability, 24 h, n.i. = no inhibition observed
[5] = PMNL (20 µM AA) 5-HETE IC50, intact PMNL
[6] = PMNL (20 µM AA) LTB4 IC50, intact PMNL

Compound	IC50 [1] [µM]	IC50 [2, 4] [µM]	PMNL (20 µM AA) 5-HETE IC50 [3]	PMNL (20 µM AA) LTB4 IC50 [3]	IC50 [3, 5]	IC50 [3, 6] [µM]	cytotoxic potency higher compared to 9NOA [2] [fold]	HT-29 (48 h) IC50 [1]	HCT-116 (24 h) IC50 [2, 4]
CCC=C(CCCCCCCC(=O)O)[N+](=O)[O-] [12.9.9, 9-nitro-dodec-9-enoic acid]	~31.5	23.1 ± 1.1	n.i.	n.i.					
CCCCC=C(CCCCCCCC(=O)O)[N+](=O)[O-] [14.9.9, 9-nitro-tetradec-9-enoic acid]	27.4 ± 1	16.8 ± 1.1	n.i.	n.i.					
CCCCCCCCCCCCCC=C(CCC(=O)O)[N+](=O)[O-] [18.4.4, 4-nitro-octadec-4-enoic acid]	23.9 ± 1.1	18.6 ± 1.1			9.2 ± 1.2 µM	10.6 ± 1.1			
CCCCCCCCCCCCC=C(CCCC(=O)O)[N+](=O)[O-] [18.5.5, 5-nitro-octadec-5-enoic acid]	18.5 ± 1.1	11.6 ± 1.1			7.5 ± 1.1 µM	9 ± 1.1			
CCCCCCCCC=C(CCCCCCCC(=O)O)[N+](=O)[O-] [18.9.9, 9-nitro-octadec-9-enoic acid]	8.8 ± 1.1	6.4 ± 1.2			5.9 µM and 6.1 µM	4.8 ± 1.8			
CCCCCCCCC(=CCCCCCCCC(=O)O)[N+](=O)[O-] [18.9.10, 10-nitro-octadec-9-enoic acid]	15.7 ± 1.1	13.5 ± 1.1			6.9 ± 1.1 µM	5 ± 1.1			
CCCCCCC=C(CCCCCCCCCC(=O)O)[N+](=O)[O-] [18.11.11, 11-nitro-octadec-11-enoic acid]	16.6 ± 1.1	16 ± 1.1			5.7 ± 1.1 µM	5.9 ± 1.1			
CCCCCCCC/C=C\CCCCCCCC(=O)O [OA, oleic acid, reference compound]			n.i.	n.i.				failed to induce cytotoxic effects and n.i.	failed to induce cytotoxic effects and n.i.

Further molecules by falling IC50 [1], results first:

IC50 [1] [µM]	IC50 [2, 4] [µM]	PMNL (20 µM AA) 5-HETE IC50 [3]	PMNL (20 µM AA) LTB4 IC50 [3]	IC50 [3, 5]	IC50 [3, 6] [µM]	Compound	cytotoxic potency higher compared to 9NOA [2] [fold]	HT-29 (48 h) IC50 [1]	HCT-116 (24 h) IC50 [2, 4]
13.9 ± 1.1	13.6 ± 1.1			6 ± 1.2 µM	7 ± 1.1	CCCCCCCC=C(CCCCCCCCC(=O)O)[N+](=O)[O-] [18.10.10, 10-nitro-octadec-10-enoic acid]			
13.8 ± 1.1	8.1 ± 1.1			11.2 ± 1.2 µM	8.3 ± 1.1	CCCCCCCCCCCC(=CCCCCC(=O)O)[N+](=O)[O-] [18.6.7, 7-nitro-octadec-6-enoic acid]			
12.7 ± 1.1	10.5 ± 1.1			10.8 ± 1.1 µM	12 ± 1.1	CCCCCCC=C(CCCCCCCC(=O)O)[N+](=O)[O-] [16.9.9, 9-nitro-hexadec-9-enoic acid]			
11.1 ± 1.1	7.6 ± 1.1			9.1 ± 1.2 µM	7.7 ± 1.1	CCCCCCCCCCCC=C(CCCCC(=O)O)[N+](=O)[O-] [18.6.6, 6-nitro-octadec-6-enoic acid]			
8.1 ± 1.1	5.4 ± 1.1			4.7 ± 1.1 µM	4.2 ± 1.1	CCCCCCCCCCC=C(CCCCCCCC(=O)O)[N+](=O)[O-] [20.9.9, 9-nitro-eicos-9-enoic acid]			
8 ± 1.1	4.6 ± 1.1			7.7 ± 1.2 µM	5.7 ± 1.2	CCCCCCCCCC(=CCCCCCCC(=O)O)[N+](=O)[O-] [18.8.9, 9-nitro-octadec-8-enoic acid]			
4.4 ± 1.1	2.7 ± 1.1			4.9 ± 1.1 µM	4.3 ± 1.1	CCCCCCCCCCC=C(CCCCCC(=O)O)[N+](=O)[O-] [18.7.7, 7-nitro-octadec-7-enoic acid]	> 2		
3.3 ± 1.1	2.1 ± 1.1			6.6 ± 1.1 µM	7.9 ± 1.1	CCCCCCCCCC=C(CCCCCCC(=O)O)[N+](=O)[O-] [18.8.8, 8-nitro-octadec-8-enoic acid]	> 2		
